Source: US11725036B2, “Modified lipidated relaxin B chain peptides and their therapeutic use” (Sanofi, priority 2018, dated 2023)
Values after ≈ are worked out from the molar mass of the structure shown. Like-named read-outs stand apart in the source and are kept apart here. Starred links: 1 amine or outer side, 2 acyl side, 3 side chain; linkers in the order of their positions; H or OH if unused. Non-standard residues stand in square brackets, D forms with d. Residues, ends and D or L forms follow the SMILES beside them. Groups on a side chain read outwards from the residue. *: point of attachment. X3 = CCCCCCCCCCCCCCCCCC(=O)N[C@@H](CCC(=O)N[C@@H](CCC(=O)N[C@@H](CCC(=O)NCCCOCCOCCOCCCNC(=O)CCC(=O)NCCCOCCOCCOCCCNC(=O)CCC(=O)NCCCOCCOCCOCCCN*)C(=O)O)C(=O)O)C(=O)O; Suc = O=C(CCC(=O)[*:2])[*:1]; Aib = CC(C)(N)C(=O)O

Assays:
Stability in rat plasma = type: in vitro ADME
Protocol: (§1) Prior to the testing of stability in plasma (or blood) of a peptide batch, its purity (HPLC-UV) was determined.
(§2) Rat and Human plasma: anti-coagulant sodium or lithium heparin.
(§3) 100 μM solution of study compound in 50 mM phosphate buffer pH 7.4.
(§4) 950 μL plasma (or blood) was pre-incubated for 5 min at 37° C. 50 μL of compound stock solution was added. Final compound concentration=5 μM. Vortex and transfer 150 μL plasma (or blood) into an Eppendorf for each time point. The time points […] were carried out in duplicate for each species.
(§5) After incubation, 150 μL plasma (or blood) was extracted with 600 μL Acetonitrile containing 1% TFA. Said mixture was then vortexed and centrifuged 10 min at 14600 rpm. 200 μL supernatant was dried under N2. Sample was then reconstituted in 200 μL of H2O/CH3CN 98/2+0.1% FA+50 ng/ml Labetalol and analyzed using the analytical system used in solubility and stability studies.
(§6) For determination of the amount of the remaining peptide, the peak areas of the target compound at t0 and each time point […] were compared, resulting in “% remaining peptide”, following the equation: % remaining peptide=[(peak area peptide time)×100]/peak area peptide t0. The stability was expressed as “% remaining peptide”.

in vivo = assay: in vivo; set-up: species or system Sprague Dawley rats; settings: Sprague Dawley, rat
Protocol: Prior to the testing of a peptide batch, its purity (HPLC-UV) was determined. Dose was corrected for presence of salts, solvent and purity. Bioanalytical screening method for quantification of peptides in rat: Sprague Dawley rats were dosed with study peptide at a dose of 1 mg/kg intravenously (i.v.) or 3 mg/kg subcutaneously (s.c.) as a solution in PBS (0.2 mg/ml and 0.6 mg/ml respectively). Blood samples were collected after: 0.083, 0.25, 0.5, 1, 2, 4, 8, 24, 48 and 72 h (i.v. route) and 0.25, 0.5, 1, 2, 4, 6, 8, 10, 24, 48 and 72 h (s.c route) post application. Plasma samples were analyzed after protein precipitation via liquid chromatography mass spectrometry (LC/MS). PK parameters and half-life were calculated using Phoenix 64 (WinNonlin 6.4)-Pharsight (Certara™) (non-compartment model). Values below the limit of quantification (BLQ) were replaced by zero for subsequent calculations and PK analysis. T½: in-vivo half-life, time required for test compound plasma concentration to be divided by two during the PK experiment. C0: Extrapolated test compound plasma concentration at t=0 time point (i.v. route). Cmax: maximal test compound plasma concentration at the indicated time point (s.c. route). Tmax: Time point where Cmax was attained. F %: s.c. vs i.v. bioavailability, dose-corrected area under curve (AUC) s.c. route divided by AUC i.v.

RXFP1 = target: T1, RXFP1 (Homo sapiens, UniProt Q9HBX9); assay: OVCAR5 cAMP assay (HTRF); type: cell-based
T1 construct: OVCAR5 cells expressing endogenous RXFP1; endogenous in cells; host or cells: OVCAR5
T1 sequence (Q9HBX9 1-757): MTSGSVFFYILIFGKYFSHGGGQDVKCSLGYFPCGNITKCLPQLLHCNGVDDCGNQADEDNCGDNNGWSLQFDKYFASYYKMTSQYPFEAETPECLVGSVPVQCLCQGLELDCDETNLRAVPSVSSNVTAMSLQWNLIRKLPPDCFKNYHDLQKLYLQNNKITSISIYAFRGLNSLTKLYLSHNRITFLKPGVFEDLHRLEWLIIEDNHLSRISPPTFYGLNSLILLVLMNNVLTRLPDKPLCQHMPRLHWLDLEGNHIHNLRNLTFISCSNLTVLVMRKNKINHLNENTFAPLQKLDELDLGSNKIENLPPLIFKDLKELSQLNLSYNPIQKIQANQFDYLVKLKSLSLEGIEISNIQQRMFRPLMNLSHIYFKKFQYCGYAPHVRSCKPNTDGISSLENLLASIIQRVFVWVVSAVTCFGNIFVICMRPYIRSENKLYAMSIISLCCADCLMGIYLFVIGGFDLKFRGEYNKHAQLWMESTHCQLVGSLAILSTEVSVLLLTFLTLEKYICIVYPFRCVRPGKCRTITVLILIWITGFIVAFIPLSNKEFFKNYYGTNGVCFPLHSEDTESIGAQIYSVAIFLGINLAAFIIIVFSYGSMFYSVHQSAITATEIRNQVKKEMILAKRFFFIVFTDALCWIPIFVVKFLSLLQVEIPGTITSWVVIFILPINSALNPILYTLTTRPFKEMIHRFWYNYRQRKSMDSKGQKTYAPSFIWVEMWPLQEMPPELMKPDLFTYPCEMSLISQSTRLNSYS
In short: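 Endogenous RXFP1 in OVCAR5 cells, pretreated 40 min at 37° C with 1 mM IBMX, then exposed to increasing peptide concentrations in serum-free medium for 30 min at 37° C. cAMP read by HTRF; EC50 by variable-slope sigmoidal fit, Emax as % of H2-relaxin maximal cAMP in same run.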

[1] = Solubility testing in buffer; type: physicochemical; settings: target solubility 10.0 mg/ml
[2] = Stability in human plasma; type: in vitro ADME
Protocol: as §1, §2, §3, §4, §5, §6

Rat plasma stability % remaining (Stability in rat plasma; T = 0, 37° C., 5 μM): 100% | remaining at 1 h, 5 μM (Stability in rat plasma; rat, plasma (sodium or lithium heparin), 1 h, 37° C.): 100% | C0 (in vivo; iv, 1 mg/kg): 3090 nM | T½ (h), in-vivo half-life (in vivo; iv, 1 mg/kg): 5.13 h | bioavailability (in vivo; sc): 80% | Cmax (in vivo; sc, 3 mg/kg): 1990 nM | Tmax (in vivo; sc, 3 mg/kg): 10 h | EC50 (RXFP1; OVCAR 5 cells expressing endogenous RXFP1, cAMP readout): 0.15 nM | Emax (RXFP1; OVCAR 5 cells, maximal cAMP relative to H2-relaxin): 96% | solubility ([1]; acetate buffer 50 mM pH 4.5, read-out: Solubility Acetate buffer pH 4.5): 9340 µg/mL (≈ 2110 µM) | solubility ([1]; phosphate buffer 50 mM pH 7.4, read-out: Solubility phosphate buffer pH 7.4): 9950 µg/mL (≈ 2250 µM) | Human Plasma stability % remaining ([2]; T = 0, 37° C., 5 μM): 87% | remaining at 1 h, 5 μM ([2]; human, plasma (sodium or lithium heparin), 1 h, 37° C.): 100% | remaining at 4 h, 5 μM ([2]; human, plasma (sodium or lithium heparin), 4 h, 37° C.): 83%
SMILES: CCCCCCCCCCCCCCCCCC(=O)N[C@@H](CCC(=O)N[C@@H](CCC(=O)N[C@@H](CCC(=O)NCCCOCCOCCOCCCNC(=O)CCC(=O)NCCCOCCOCCOCCCNC(=O)CCC(=O)NCCCOCCOCCOCCCNC(=O)CCC(=O)NCCCC[C@H](NC(=O)CNC(=O)[C@H](CCC(=O)O)NC(=O)C(C)(C)NC(=O)C(C)(C)NC(=O)[C@@H](NC(=O)[C@H](CCCCNC(C)=O)NC(=O)[C@H](C)NC(=O)[C@H](CCCNC(=N)N)NC(=O)[C@@H](NC(=O)[C@H](CCCCN)NC(=O)[C@H](CCC(=O)O)NC(=O)[C@H](CCCNC(=N)N)NC(=O)CNC(=O)[C@H](CCC(=O)O)NC(=O)[C@H](CC(C)C)NC(C)=O)C(C)C)[C@@H](C)CC)C(=O)N[C@@H](CO)C(=O)N[C@H](C(=O)N[C@@H](Cc1c[nH]c2ccccc12)C(=O)N[C@@H](CO)C(=O)NC(C)(C)C(=O)N[C@@H](CCCNC(=N)N)C(=O)N[C@@H](CCCCN)C(=O)N[C@@H](CCCCNC(C)=O)C(N)=O)[C@@H](C)O)C(=O)O)C(=O)O)C(=O)O [compound 20] (Ac-LEGREKVRAK(Ac)I[Aib][Aib]EGK([Suc-X3])STWS[Aib]RKK(Ac)-NH2)
